Reference: ChEMBL document CHEMBL3885861, “Open TG-GATES”

Species on record: Rattus norvegicus
Assay: Open TG-GATES - Regimen: Daily Repeat
Type: toxicity, organism-based, Sprague-Dawley
Parameters: regimen Daily Repeat, gender Male, age 6 weeks
Details: in vivo, po, 100 mg/kg, route gavage, dose level Low; for APTT / Bas / Eos / Fbg / Hb / Ht / Lym / MCH / MCHC / MCV / Mono / Neu / PT / Plat / RBC / Ret / WBC: tissue Blood; for KIDNEY_L / KIDNEY_R / KIDNEY_TOTAL: tissue Kidney; for LIVER: tissue Liver; for A/G / ALP / ALT / AST / BUN / CRE / Ca / Cl / DBIL / GLC / IP / K / LDH / Na / PL / RALB / TBIL / TC / TG / TP / gamma-GTP: tissue Plasma

Work on `CCCCNC(=O)NS(=O)(=O)c1ccc(C)cc1` [TOLBUTAMIDE] yielded a TERMINAL_BW (72 h, time 3 day) of 233.9 g, an APTT (72 h, time 3 day) of 20.4 s and a Bas (72 h, time 3 day) of 0.2%. The Eos (72 h, time 3 day) was 1.2%, the Fbg (72 h, time 3 day) was 283.2 mg/dL and the Hb (72 h, time 3 day) was 13.7 g/dL. It also gave a Ht (72 h, time 3 day) of 42%, a Lym (72 h, time 3 day) of 80.2% and an MCH (72 h, time 3 day) of 20.2 pg. The MCHC (72 h, time 3 day) was 32.7%, the MCV (72 h, time 3 day) was 61.9 fL and the Mono (72 h, time 3 day) was 2.2%. For the same molecule, the Neu (72 h, time 3 day) was 15.8%, the PT (72 h, time 3 day) was 13.2 s and the Plat (72 h, time 3 day) was 118.8 x10_4/uL. For the same molecule, the RBC (72 h, time 3 day) was 680.4 x10_4/ul, the Ret (72 h, time 3 day) was 5.8% and the WBC (72 h, time 3 day) was 98.1 x10_2/uL. The KIDNEY_L (72 h, time 3 day) was 1 g, the KIDNEY_R (72 h, time 3 day) was 1 g and the KIDNEY_TOTAL (72 h, time 3 day) was 2 g. The LIVER (72 h, time 3 day) was 11.3 g, the A/G (72 h, time 3 day) was 0.9 and the ALP (72 h, time 3 day) was 1905.6 IU/L. It also gave an ALT (72 h, time 3 day) of 46.2 IU/L, an AST (72 h, time 3 day) of 73.8 IU/L and a BUN (72 h, time 3 day) of 15 mg/dL. For the same molecule, the CRE (72 h, time 3 day) was 0.2 mg/dL, the Ca (72 h, time 3 day) was 11.1 mg/dL and the Cl (72 h, time 3 day) was 104.6 meq/L. It also gave a DBIL (72 h, time 3 day) of 0.01 mg/dL, a GLC (72 h, time 3 day) of 180.4 mg/dL and an IP (72 h, time 3 day) of 8.4 mg/dL. For the same molecule, the K (72 h, time 3 day) was 3.9 meq/L, the LDH (72 h, time 3 day) was 68.8 IU/L and the Na (72 h, time 3 day) was 142.6 meq/L. It also gave a PL (72 h, time 3 day) of 156.4 mg/dL, an RALB (72 h, time 3 day) of 2.6 g/dL and a TBIL (72 h, time 3 day) of 0.058 mg/dL. It also gave a TC (72 h, time 3 day) of 77 mg/dL, a TG (72 h, time 3 day) of 99.4 mg/dL and a TP (72 h, time 3 day) of 5.5 g/dL. For the same molecule, the gamma-GTP (72 h, time 3 day) was 1 IU/L, the TERMINAL_BW ([…], time 7 day) was 273.5 g and the TERMINAL_BW ([…], time 14 day) was 313.3 g. For the same molecule, the TERMINAL_BW ([…], time 28 day) was 400.3 g, the APTT ([…], time 7 day) was 16.9 s and the Bas ([…], time 7 day) was 0%. It also gave an Eos ([…], time 7 day) of 1%, a Fbg ([…], time 7 day) of 303.2 mg/dL and a Hb ([…], time 7 day) of 13.6 g/dL. For the same molecule, the Ht ([…], time 7 day) was 40.9%, the Lym ([…], time 7 day) was 74.4% and the MCH ([…], time 7 day) was 20.4 pg. It also gave an MCHC ([…], time 7 day) of 33.2%, an MCV ([…], time 7 day) of 61.4 fL and a Mono ([…], time 7 day) of 2%. For the same molecule, the Neu ([…], time 7 day) was 21.8%, the PT ([…], time 7 day) was 12.5 s and the Plat ([…], time 7 day) was 130 x10_4/uL. It also gave an RBC ([…], time 7 day) of 667 x10_4/ul, a Ret ([…], time 7 day) of 5.4% and a WBC ([…], time 7 day) of 123.8 x10_2/uL. For the same molecule, the APTT ([…], time 14 day) was 18.6 s, the Bas ([…], time 14 day) was 0.2% and the Eos ([…], time 14 day) was 0.8%. It also gave a Fbg ([…], time 14 day) of 284.2 mg/dL, a Hb ([…], time 14 day) of 14.2 g/dL and a Ht ([…], time 14 day) of 43.5%. The Lym ([…], time 14 day) was 81%, the MCH ([…], time 14 day) was 19.5 pg and the MCHC ([…], time 14 day) was 32.6%. For the same molecule, the MCV ([…], time 14 day) was 60 fL, the Mono ([…], time 14 day) was 1.8% and the Neu ([…], time 14 day) was 15.8%. It also gave a PT ([…], time 14 day) of 13.2 s, a Plat ([…], time 14 day) of 120.7 x10_4/uL and an RBC ([…], time 14 day) of 726.6 x10_4/ul. The Ret ([…], time 14 day) was 4.1%, the WBC ([…], time 14 day) was 100.3 x10_2/uL and the APTT ([…], time 28 day) was 17.5 s. It also gave a Bas ([…], time 28 day) of 0.6%, an Eos ([…], time 28 day) of 1.2% and a Fbg ([…], time 28 day) of 287.2 mg/dL. For the same molecule, the Hb ([…], time 28 day) was 15.6 g/dL, the Ht ([…], time 28 day) was 46.6% and the Lym ([…], time 28 day) was 80.4%. It also gave an MCH ([…], time 28 day) of 18.8 pg, an MCHC ([…], time 28 day) of 33.5% and an MCV ([…], time 28 day) of 56.1 fL. The Mono ([…], time 28 day) was 2.4%, the Neu ([…], time 28 day) was 14.8% and the PT ([…], time 28 day) was 13.5 s. It also gave a Plat ([…], time 28 day) of 102.7 x10_4/uL, an RBC ([…], time 28 day) of 831.6 x10_4/ul and a Ret ([…], time 28 day) of 2.4%. For the same molecule, the WBC ([…], time 28 day) was 116.4 x10_2/uL, the KIDNEY_L ([…], time 7 day) was 1.2 g and the KIDNEY_R ([…], time 7 day) was 1.2 g. For the same molecule, the KIDNEY_TOTAL ([…], time 7 day) was 2.3 g, the KIDNEY_L ([…], time 14 day) was 1.2 g and the KIDNEY_R ([…], time 14 day) was 1.2 g. It also gave a KIDNEY_TOTAL ([…], time 14 day) of 2.4 g, a KIDNEY_L ([…], time 28 day) of 1.3 g and a KIDNEY_R ([…], time 28 day) of 1.3 g. It also gave a KIDNEY_TOTAL ([…], time 28 day) of 2.7 g, an LIVER ([…], time 7 day) of 12.8 g and an LIVER ([…], time 14 day) of 13.1 g. The LIVER ([…], time 28 day) was 15.8 g, the A/G ([…], time 7 day) was 0.9 and the ALP ([…], time 7 day) was 1801.2 IU/L. The ALT ([…], time 7 day) was 43.8 IU/L, the AST ([…], time 7 day) was 68 IU/L and the BUN ([…], time 7 day) was 17.6 mg/dL. It also gave a CRE ([…], time 7 day) of 0.2 mg/dL, a Ca ([…], time 7 day) of 10.9 mg/dL and a Cl ([…], time 7 day) of 104.4 meq/L. It also gave a DBIL ([…], time 7 day) of 0.01 mg/dL, a GLC ([…], time 7 day) of 197.4 mg/dL and an IP ([…], time 7 day) of 7.9 mg/dL. It also gave a K ([…], time 7 day) of 4.1 meq/L, an LDH ([…], time 7 day) of 55.6 IU/L and a Na ([…], time 7 day) of 141.8 meq/L. The PL ([…], time 7 day) was 165.2 mg/dL, the RALB ([…], time 7 day) was 2.6 g/dL and the TBIL ([…], time 7 day) was 0.056 mg/dL. For the same molecule, the TC ([…], time 7 day) was 79.6 mg/dL, the TG ([…], time 7 day) was 138.4 mg/dL and the TP ([…], time 7 day) was 5.5 g/dL. For the same molecule, the gamma-GTP ([…], time 7 day) was 1.2 IU/L, the A/G ([…], time 14 day) was 0.8 and the ALP ([…], time 14 day) was 1429.8 IU/L. The ALT ([…], time 14 day) was 37.2 IU/L, the AST ([…], time 14 day) was 67.4 IU/L and the BUN ([…], time 14 day) was 16.8 mg/dL. The CRE ([…], time 14 day) was 0.2 mg/dL, the Ca ([…], time 14 day) was 10.7 mg/dL and the Cl ([…], time 14 day) was 104.6 meq/L. It also gave a DBIL ([…], time 14 day) of 0.014 mg/dL, a GLC ([…], time 14 day) of 196.2 mg/dL and an IP ([…], time 14 day) of 7.1 mg/dL. It also gave a K ([…], time 14 day) of 3.8 meq/L, an LDH ([…], time 14 day) of 60.8 IU/L and a Na ([…], time 14 day) of 143.2 meq/L. The PL ([…], time 14 day) was 135 mg/dL, the RALB ([…], time 14 day) was 2.6 g/dL and the TBIL ([…], time 14 day) was 0.062 mg/dL. It also gave a TC ([…], time 14 day) of 61.6 mg/dL, a TG ([…], time 14 day) of 141.6 mg/dL and a TP ([…], time 14 day) of 5.7 g/dL. It also gave a gamma-GTP ([…], time 14 day) of 1.2 IU/L, an A/G ([…], time 28 day) of 0.8 and an ALP ([…], time 28 day) of 1233.8 IU/L. It also gave an ALT ([…], time 28 day) of 38 IU/L, an AST ([…], time 28 day) of 63.8 IU/L and a BUN ([…], time 28 day) of 17.8 mg/dL. For the same molecule, the CRE ([…], time 28 day) was 0.3 mg/dL, the Ca ([…], time 28 day) was 10.7 mg/dL and the Cl ([…], time 28 day) was 105.2 meq/L. The DBIL ([…], time 28 day) was 0.012 mg/dL, the GLC ([…], time 28 day) was 188.6 mg/dL and the IP ([…], time 28 day) was 6.7 mg/dL. It also gave a K ([…], time 28 day) of 3.9 meq/L, an LDH ([…], time 28 day) of 49.8 IU/L and a Na ([…], time 28 day) of 143 meq/L. It also gave a PL ([…], time 28 day) of 151.2 mg/dL, an RALB ([…], time 28 day) of 2.7 g/dL and a TBIL ([…], time 28 day) of 0.058 mg/dL. It also gave a TC ([…], time 28 day) of 68.8 mg/dL, a TG ([…], time 28 day) of 174.6 mg/dL and a TP ([…], time 28 day) of 6.2 g/dL. For the same molecule, the gamma-GTP ([…], time 28 day) was 1 IU/L.
